The values below come from patent US8912360B2, “Methods for preparing ritodrine hydrochloride” (Lundbeck Pharmaceuticals Italy S.p.A., priority 2010, dated 2014).

A short description of this data set: Stability / hygroscopicity: water content through Karl Fischer titration after storage. Type of data set: physicochemical. To be noted: for hygroscopicity: hydrochloride. Here is the method:
The water content was determined through Karl Fischer (KF) titration.
Ritodrine hydrochloride Form I is kept at 40° C. and a relative humidity of 75% for 24 hours. The water content measured through Karl Fischer titration is 0.5% (weight/weight).
Ritodrine hydrochloride Form II is placed in a double polyethylene bag with a desiccant (silica gel) kept in standard conditions for storing active ingredients. After some months the water content of such Ritodrine hydrochloride measured through Karl Fischer titration is 2.2% (weight/weight).

Structures are written as SMILES.

For `C[C@@H](NCCc1ccc(O)cc1)[C@@H](O)c1ccc(O)cc1.Cl` (racemic) [Ritodrine hydrochloride Form I, 4-((1RS,2SR)-1-hydroxy-2-{[2-(4-hydroxyphenyl)ethyl]amino}propyl)phenol hydrochloride], the hygroscopicity entry was “non-hygroscopic”. Also, the water absorption entry (exposed to a relative humidity of 75%) is given as “does not absorb water”. For the same molecule, the “water content measured through Karl Fischer titration” value (kept at 40° C. and a relative humidity of 75% for 24 hours) is recorded as 0.5 % (weight/weight).

As to `C[C@@H](NCCc1ccc(O)cc1)[C@@H](O)c1ccc(O)cc1.Cl` (racemic) [Ritodrine hydrochloride Form II, 4-((1RS,2SR)-1-hydroxy-2-{[2-(4-hydroxyphenyl)ethyl]amino}propyl)phenol hydrochloride], the hygroscopicity result is “hygroscopic”. The “water content measured through Karl Fischer titration” value (double polyethylene bag with a desiccant (silica gel), standard conditions for storing active ingredients, after some months) was 2.2 % (weight/weight). Besides, the water absorption entry (not exposed directly to a humid environment, normal controlled storing conditions) is “absorbs water”.
